Experimental data taken from ChEMBL document CHEMBL4190274, “A Cyclopeptide and a Tetrahydroisoquinoline Alkaloid from Ophiorrhiza nutans” (J Nat Prod, 2017).
pIC50: −log10 of the molar value.

Experiments:
Assay type in all cases: functional, cell-based
[1] = test system: A549; assay: Cytotoxicity against human A549 cells
[2] = test system: HT-29; assay: Cytotoxicity against human HT-29 cells
[3] = test system: HCT-116; assay: Cytotoxicity against human HCT116 cells

Measured: pIC50

C[N+](C)(C)[C@@H](Cc1ccc(O)cc1)C(=O)N[C@@H]1C(=O)N[C@@H](Cc2ccccc2)C(=O)N[C@H](C(=O)[O-])Cc2ccc(cc2)O[C@@H]1c1ccccc1
< 4.82: [1] | [2] | [3]
